Data reported in article PMC5733478, “A Non-imaging High Throughput Approach to Chemical Library Screening at the Unmodified Adenosine-A3 Receptor in Living Cells” (Frontiers in Pharmacology, 2017).
Counter-ions that a name gives are not always drawn. Like-named read-outs stand apart in the source and are kept apart here.

Target: T1, human A3AR (Homo sapiens, UniProt P0DMS8)
T1 construct: expressed in transfected cells
T1 sequence (P0DMS8 1-318): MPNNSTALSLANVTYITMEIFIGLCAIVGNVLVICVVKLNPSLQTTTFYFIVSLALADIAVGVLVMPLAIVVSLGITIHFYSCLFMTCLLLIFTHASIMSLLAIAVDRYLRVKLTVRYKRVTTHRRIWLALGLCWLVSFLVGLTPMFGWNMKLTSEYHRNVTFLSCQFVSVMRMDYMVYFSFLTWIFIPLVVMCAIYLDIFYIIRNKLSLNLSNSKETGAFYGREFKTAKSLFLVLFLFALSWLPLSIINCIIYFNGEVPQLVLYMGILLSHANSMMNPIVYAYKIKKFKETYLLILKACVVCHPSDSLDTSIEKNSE
Assay: LOPAC library primary screen: single concentration (10 μM) inhibition of 25 nM CA200645 binding, PHERAstar FS

[1] = % of control wells (1% DMSO and 25 nM CA200645), compounds at 10 µM, […], mean ± SD, three experiments in duplicate
[2] = compounds tested at 10 µM, % of control wells (1% DMSO and 25 nM CA200645), whole live cells expressing the A3AR, mean ± SD, three experiments in duplicate

| Molecule | % 25 nM CA200645 binding [%] | also measured |
| --- | --- | --- |
| CCn1c(=O)[nH]c2cc(Cl)c(Cl)cc21 [DCEBIO] | 87.8 ± 8.9 | – |
| CCOC(=O)C(C)(C)Oc1ccc(Cl)cc1 [Clofibrate] | – | % 25 nM CA200645 binding [1]: 81.3 ± 24.9% |
| CC1=C(C(=O)O)N2C(=O)[C@@H](NC(=O)[C@H](N)c3ccccc3)[C@H]2SC1.O [Cephalexin hydrate] | 101.0 ± 8.0 | – |
| Cl.NC[C@@H]1O[C@H](c2ccccc2)Cc2c1ccc(O)c2O [A-68930 hydrochloride] | 95.6 ± 9.3 | – |
| NCC(O)(CS(=O)(=O)O)c1ccc(Cl)cc1 (centres unmarked) [2-Hydroxysaclofen] | 92.7 ± 0.2 | – |
| CCN(CC)CCOc1ccc(Nc2ncc3cc(-c4c(Cl)cccc4Cl)c(=O)n(C)c3n2)cc1.O [PD-166285 hydrate] | 108.1 ± 4.5 | – |
| NC(CO)C(=O)NNCc1ccc(O)c(O)c1O (centres unmarked) [Benserazide hydrochloride] | 98.9 ± 5.3 | – |
| CC(N/C(=N\C#N)Nc1ccncc1)C(C)(C)C (centres unmarked) [Pinacidil] | 105.1 ± 8.3 | – |
| Cc1ccc(Cl)c(Nc2ccccc2C(=O)O)c1Cl [Meclofenamic acid sodium] | 93.6 ± 9.6 | – |
| Oc1ccccc1O [Pyrocatechol] | 91.0 ± 7.4 | – |
| O=C(O)CCc1ccc(NCc2cccc(Oc3ccccc3)c2)cc1 [GW9508] | 94.4 ± 0.8 | – |
| CCCCN(CCCC)CC(O)c1cc(Cl)cc2c1-c1ccc(Cl)cc1/C2=C/c1ccc(Cl)cc1 (centres unmarked) [Lumefantrine] | – | % 25 nM CA200645 binding [2]: 94.4 ± 10.9% |
| C[C@H](Cc1ccc(OCC(=O)[O-])cc1)NC[C@H](O)c1cccc(Cl)c1.[Na+] [BRL 37344 sodium] | 98.2 ± 9.4 | – |
| Picrotoxin | 96.8 ± 4.1 | – |
| CN1CC(=O)NC1=NC(=O)Nc1cccc(Cl)c1 [Fenobam] | 81.9 ± 15.0 | – |
| COC(=O)C1=C(C)NC(C)=C([N+](=O)[O-])C1c1ccccc1C(F)(F)F (racemic) [(±)-Bay K 8644] | 95.3 ± 3.4 | – |
| O=C(O)/C=C/c1ccc(O)c(O)c1 [Caffeic Acid] | – | % 25 nM CA200645 binding (% of control wells (1% DMSO and 25 nM CA200645), compounds at 10 µM, whole live cells expressing the A3AR, mean ± SD, three experiments in duplicate): 100.0 ± 4.2% |
| Brc1ccc([C@H]2CN3CCSC3=N2)cc1.O=C(O)C(=O)O [S(-)-p-Bromotetramisole oxalate] | 68.6 ± 44.8 | – |
| Nc1nc2c(nc(Br)n2[C@@H]2O[C@@H]3COP(=O)([O-])O[C@H]3[C@H]2O)c(=O)[nH]1.[Na+] [8-Bromo-cGMP sodium] | 102.4 ± 7.4 | – |
| CN(C)CC/C=C1/c2ccccc2Sc2ccc(Cl)cc21 [Chlorprothixene hydrochloride] | 96.6 ± 7.7 | – |
| Oc1cc2c(cc1O)CN(C(=S)NCCc1ccc(Cl)cc1)CCC2 [Capsazepine] | – | % 25 nM CA200645 binding [2]: 90.6 ± 11.8% |
| COc1cc(/C=C(\C#N)C(=O)c2ccc(O)c(O)c2)cc(I)c1O [I-OMe-Tyrphostin AG 538] | 71.3 ± 34.4 | – |
| N[C@H](CO)C(=O)O [D-Serine] | 100.2 ± 11.0 | – |
| CC(C)(C)c1o[nH]c(=O)c1CC(N)C(=O)O (centres unmarked) [ATPA] | 96.6 ± 6.2 | – |
| CC(=O)OCC(CCn1cnc2cnc(N)nc21)COC(C)=O [Famciclovir] | 104.8 ± 9.2 | – |
| NC(N)=Nc1ccc2[nH]c3c(c2c1)C[C@@]1(O)[C@H]2Cc4ccc(O)c5c4[C@@]1(CCN2CC1CC1)[C@H]3O5.O=C(O)C(F)(F)F.O=C(O)C(F)(F)F | 93.9 ± 7.0 | – |
| N[C@@H](Cc1ccc(O)c(O)c1)C(=O)O [L-3,4-Dihydroxyphenylalanine] | 99.1 ± 9.5 | – |
| COCCOC(=O)C1=C(C)NC(C)=C(C(=O)OC/C=C/c2ccccc2)C1c1cccc([N+](=O)[O-])c1 (centres unmarked) [Cilnidipine] | 67.0 ± 19.0 | – |

| Molecule | % 25 nM CA200645 binding [%] | also measured |
| --- | --- | --- |
| C=CCc1ccccc1OCC(O)CNC1(C)CCC(C(C)(C)NC(=O)CBr)CC1 (centres unmarked) [Bromoacetyl alprenolol menthane] | 102.8 ± 4.8 | – |
| CC(N)C(=O)OC(C)(C)Cc1ccc(Cl)cc1 (centres unmarked) [Alaproclate hydrochloride] | 104.8 ± 8.1 | – |
| CC(=O)NCCc1c[nH]c2ccc(O)cc12 [N-Acetyl-5-hydroxytryptamine] | 100.5 ± 7.6 | – |
| C[N+]1(C)CCC(OC(=O)C(c2ccccc2)c2ccccc2)CC1.[I-] [4-DAMP methiodide] | 84.9 ± 19.8 | – |
| C[C@H](Cc1ccccc1)Nc1ncnc2c1ncn2[C@@H]1O[C@H](CO)[C@@H](O)[C@H]1O [R(-)-N6-(2-Phenylisopropyl)adenosine] | 69.2 ± 26.4 | – |
| C[N+](C)(C)CC#CCN1CCCC1=O [Oxotremorine methiodide] | 101.3 ± 18.6 | – |
| Nc1nc(N)c(N=O)c(OCC2CCCCC2)n1 [NU6027] | 80.6 ± 9.9 | – |
| Cl.N=C(N)NN [Aminoguanidine hydrochloride] | 100.9 ± 6.1 | – |
| CCCn1c(=O)c2[nH]c(C3CCCC3)nc2n(CCCOC(=O)c2ccc(S(=O)(=O)F)cc2)c1=O [FSCPX, reference compound] | 57.1 ± 9.1 | % Total CA200645 binding (% of 25 nM CA200645 binding in the presence of 10 μM compound, LOPAC full screen, A3AR CHO cells): 57.5 ± 23.0% |
| CCN1CCCC1CNC(=O)c1cc(S(=O)(=O)CC)c(N)cc1OC (centres unmarked) [Amisulpride] | 98.0 ± 5.3 | – |
| Cl.O[Si](CCCN1CCCCC1)(c1ccc(F)cc1)C1CCCCC1 (centres unmarked) | 104.8 ± 7.7 | – |
| Cl.NC1(C(=O)O)CC1 | 88.3 ± 14.5 | – |
| O=C(O)Cc1ccccc1Nc1c(Cl)cccc1Cl [Diclofenac sodium] | 100.0 ± 12.4 | – |
| Cn1ccnc1 [1-Methylimidazole] | 115.7 ± 16.4 | – |
| C[C@@]1(C2CCCC2)Cc2cc(OCC(=O)O)c(Cl)c(Cl)c2C1=O [R(+)-IAA-94] | 95.5 ± 13.0 | – |
| CC(C)(Oc1ccc(CCNC(=O)c2ccc(Cl)cc2)cc1)C(=O)O [Bezafibrate] | 93.0 ± 7.9 | – |
| CN(C)C(=O)Oc1ccc[n+](C)c1 [Pyridostigmine bromide] | 92.0 ± 6.7 | – |
| CC(C)C(=O)c1c(C(C)C)nn2ccccc12 [Ibudilast] | 82.8 ± 12.0 | – |
| Cl.c1ccc([C@H]2CN3CCSC3=N2)cc1 [(-)-Tetramisole hydrochloride] | 112.9 ± 6.8 | – |
| CN1CCN(CCCN2c3ccccc3Sc3ccc(Cl)cc32)CC1 [Prochlorperazine dimaleate] | 90.4 ± 18.3 | – |
| CCCCN(CC)c1nc(C)nc2c1c(C)cn2-c1c(C)cc(C)cc1C.Cl [CP-154526 hydrochloride] | 77.3 ± 23.1 | – |
| CN(C)CCCN1c2ccccc2Sc2ccc(C(F)(F)F)cc21 [Triflupromazine hydrochloride] | 99.0 ± 16.0 | – |
| Nc1ncnc2c1ncn2[C@@H]1O[C@H](COP(=O)(O)CP(=O)(O)OP(=O)([O-])[O-])[C@H](O)C1O.[Li+].[Li+] (some centres unmarked) | 102.3 ± 5.3 | – |
| NC12CC3CC(CC(C3)C1)C2 [Amantadine hydrochloride] | 104.6 ± 3.5 | – |
| NC(=O)COc1c(F)cc(SCCNS(=O)(=O)c2ccccc2)cc1F | 109.8 ± 13.1 | – |
| CC(=O)[C@]1(O)Cc2c(O)c3c(c(O)c2[C@@H](O[C@H]2C[C@H](N)[C@H](O)[C@H](C)O2)C1)C(=O)c1ccccc1C3=O [Idarubicin] | 95.1 ± 1.7 | – |
| CN1CCN(CCCN2c3ccccc3Sc3ccc(C(F)(F)F)cc32)CC1 [Trifluoperazine dihydrochloride] | – | % 25 nM CA200645 binding [1]: 97.1 ± 25.1% |
